Molecules are shown by their SMILES.

Type in all cases: in vivo, human
In one data set the test system is S-Hyaluronan. Nature of the data set: Serum hyaluronan (HA-ELISA) in 4-week double-blind study. How it is done: (§1) In order to assess the effects of HICA on type II collagen and hyaluronic acid in healthy adults in vivo a study was conducted, where fifteen healthy male athletes (age 21.3±2.8 yr) volunteered for the 4-week study with double-blind design (Table 1). They were randomized to two parallel groups. Subjects in Group 1 (n=8, age 22.8±4.6 yr, height 179±6 cm, weight 76.2±6.9 kg, fat % 14.1±3.7%) received 583.2 mg of sodium salt of HICA (corresponding 500 mg of HICA) thrice a day for 4 weeks, and those in Group 2 (n=7, age 21.3±3.0 yr, height 178±5 cm, weight 73.5±5.0 kg, fat % 11.1±3.0%) received placebo (650 mg of maltodextrin) thrice a day for the same period. The subjects and the controls received repacked substance of equal volume (1.5 ml) which they were advised to mix with liquid. The subjects and the controls kept physical training constant during the study period, and they kept training daily. Serum specimens were obtained at baseline and in the end of the treatment. Specimens were aliquoted and immediately frozen; serum was collected and frozen at −70° C.
Serum HA was measured by Hyaluronan Enzyme-Linked Immunosorbent Assay Kit, HA-ELISA (Echelon Biosciences Inc., Salt Lake City, USA). Intra- and interassay coefficients of variation of the serum HA assay were 3.2% and 4.42% respectively. The assay range was 15-1,000 ng/ml, the intraassay CV was <4%, the interassay CV was <6%. […]
Background: ELISA stands for enzyme-linked immunosorbent assay.

Data set [1] has as its system type II collagen C2C neoepitope. Nature of the data set: Serum type II collagen C2C neoepitope (ELISA) in 4-week double-blind study. How it is done: as §1
A kit for determination of the type II collagen C2C neoepitope was provided by Ibex Technologies (Montreal, Quebec, Canada). It was measured by means of an enzyme-linked immunosorbent assay (ELISA) (Kojima, Mwale et al. 2001). […]

The nature of data set [2]: Characteristics of the subjects after four weeks on HICA. As to conditions: Mean ± SD. How it is done:
as §1
The Analysis of Variance (ANOVA) was used to assess statistical differences between the treatment groups. Data were handled as changes between the measurements before and after the treatments. Further, paired t-test was used to compare values before and after treatments. Probabilities less than 0.05 were regarded as statistically significant. Statistical analyses were carried out using the software program Systat for Windows (Statistics, Version 9, Evanston, IL, USA, 1992). The results are presented as means±SEM.

`CC(C)CC(O)C(=O)O` (racemic) [HICA, 2-hydroxy-4-methylpentanoic acid]: the “S-Hyaluronan after HICA” value in the data set on S-Hyaluronan (Mean ± SEM, n=8 healthy male athletes, sodium salt of HICA corresponding 500 mg HICA thrice a day for 4 weeks, before 202 ± 56, p = 0.066 vs placebo) was 143 ± 19 ng/mL. Further, the “decrease in serum HA concentration” value in the data set on S-Hyaluronan (during 4-week administration of HICA, placebo 10%, p=0.066 between the groups) turned out to be 29%. Further, in data set [1] (Mean ± SEM, n=8 healthy male athletes, sodium salt of HICA corresponding 500 mg HICA thrice a day for 4 weeks, before 204 ± 14, p = 0.069 vs placebo), the “S-C2C after HICA” value came to 189 ± 10 ng/mL. Besides, the “decrease in serum C2C” value in data set [1] (during 4-week administration of HICA, placebo 2%, p=0.069 between the groups) turned out to be 8%. For the same molecule, the “Hematocrite after HICA” value in data set [2] (before 0.44 ± 0.02, p = n.s. vs placebo) was 0.45 ± 0.02. In data set [2] (before 14.1 ± 3.7, p = n.s. vs placebo), the “Body Fat procent after HICA” value came out at 14.0 ± 2.5%. Besides, in data set [2] (before 76.2 ± 6.9, p = n.s. vs placebo), the “Weight after HICA” value came to 76.5 ± 8.4 kg. The “Hemoglobin after HICA” value in data set [2] (before 152 ± 7, p = n.s. vs placebo) is 151 ± 5 g/L.

The values are drawn from patent publication US11793779B2, “Hica for use in prophylaxis and/or treatment of a disease or condition involving degradation of cartilage and/or disruption of cartilage homeostasis and/or integrity” (Salarusta Oy, priority 2020, dated 2023).
